In the assay the target is Serine/threonine-protein kinase Nek6 (Homo sapiens) (UniProt Q9HC98). Put plainly: NEK6 kinase inhibitors, dose response, biochemical, Z'-LYTE FRET, direct format, recombinant human (AID 1671331). Conditions: Z'-LYTE FRET kinase activity.
Chain of Serine/threonine-protein kinase Nek6 (Homo sapiens) (Q9HC98 whole entry, looked up): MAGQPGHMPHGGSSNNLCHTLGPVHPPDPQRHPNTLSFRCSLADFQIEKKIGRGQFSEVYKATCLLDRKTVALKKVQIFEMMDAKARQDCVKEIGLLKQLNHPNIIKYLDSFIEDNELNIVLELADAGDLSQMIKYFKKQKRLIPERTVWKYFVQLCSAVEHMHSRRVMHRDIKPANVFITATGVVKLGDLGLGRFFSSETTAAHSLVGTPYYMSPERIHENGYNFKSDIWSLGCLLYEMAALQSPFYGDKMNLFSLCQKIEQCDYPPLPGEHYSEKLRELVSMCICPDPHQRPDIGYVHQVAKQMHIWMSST

As to `CN1C(=O)C2(Cc3cn(C45CC67SSC(CO)(C(=O)N6C4Nc4ccccc45)N(C)C7=O)c4ccccc34)SSC1(CO)C(=O)N2C` (stereo unspecified), the IC50 was 59 nM.

These data come from PubChem BioAssay AID1671331.
